The assay has as its target T1, Trx-6×His-BCL6 (human BCL6 BTB domain covering amino-acid sequence 5-129) (Homo sapiens, UniProt P41182).
T1 construct: made in house
Nature of the assay: HTRF assay (BCL6 / BCOR peptide). Format: binding. The note with it: 1 nM Trx-6×His-BCL6, 300 nM BCOR-AF633 peptide, 2 hours incubation at room temperature; for IC50: read-out: HTRF avg pIC50 (converted). The method, then: After 2 hours incubation at room temperature the plate was read on a Pherastar FSX (BMG Labtech) plate reader equipped with 337 nm laser excitation filter, a first emission filter at 620 nm and a second emission filter at 665 nm. The % inhibition at each concentration was calculated by normalising FRET ratio to the appropriate high (DMSO with all reagents) and low (DMSO without BCL6) controls.
In general terms: In TR-FRET formats the signal depends on donor and acceptor labels being close together.

Consider `Cc1nccc(Nc2ccc3c(c2)c2c(c(=O)n3C)OCC(F)(F)[C@H](C3CC3)N2)c1Cl` [Example 4e, (S)-10-((3-chloro-2-methylpyridin-4-yl)amino)-2-cyclopropyl-3,3-difluoro-7-methyl-1,2,3,4-tetrahydro-[1,4]oxazepino[2,3-c]quinolin-6(7H)-one], for which the “HTRF avg pIC50” value worked out at 7.73.

As for `Cn1c(=O)c2c(c3cc(Nc4nc(N5[C@@H]6COC[C@H]5C[C@@H](O)C6)ncc4F)ccc31)N[C@@H](C1CC1)C(F)(F)CO2` [Example 5a, (S)-2-cyclopropyl-3,3-difluoro-10-((5-fluoro-2-((1R,5S,7R)-7-hydroxy-3-oxa-9-azabicyclo[3.3.1]nonan-9-yl)pyrimidin-4-yl)amino)-7-methyl-1,2,3,4-tetrahydro-[1,4]oxazepino[2,3-c]quinolin-6(7H)-one], the IC50 is 1.51 nM.

Turning to `Cn1c(=O)c2c(c3cc(Nc4ncncc4Cl)ccc31)N[C@@H](C1CC1)C(F)(F)CO2` [Example 6a, (S)-10-((5-chloropyrimidin-4-yl)amino)-2-cyclopropyl-3,3-difluoro-7-methyl-1,2,3,4-tetrahydro-[1,4]oxazepino[2,3-c]quinolin-6(7H)-one], the IC50 is 14.1 nM.

For `CN(C)c1ncc(Cl)c(Nc2ccc3c(c2)c2c(c(=O)n3C)OCC(F)(F)[C@H](C3CC3)N2)n1` [Example 8a, (S)-10-((5-chloro-2-(dimethylamino)pyrimidin-4-yl)amino)-2-cyclopropyl-3,3-difluoro-7-methyl-1,2,3,4-tetrahydro-[1,4]oxazepino[2,3-c]quinolin-6(7H)-one], the IC50 was 10.7 nM.

For the molecule `Cn1c(=O)c2c(c3cc(Nc4nc(N5C[C@@H](O)C[C@@H](F)C5)ncc4Cl)ccc31)N[C@@H](C1CC1)C(F)(F)CO2` [Example 9a, (S)-10-((5-chloro-2-((3S,5R)-3-fluoro-5-hydroxypiperidin-1-yl)pyrimidin-4-yl)amino)-2-cyclopropyl-3,3-difluoro-7-methyl-1,2,3,4-tetrahydro-[1,4]oxazepino[2,3-c]quinolin-6(7H)-one: (S)-10-((5-chloro-2-((3R,5S)-3-fluoro-5-hydroxypiperidin-1-yl)pyrimidin-4-yl)amino)-2-cyclopropyl-3,3-difluoro-7-methyl-1,2,3,4-tetrahydro-[1,4]oxazepino[2,3-c]quinolin-6(7H)-one (1:1)], the “HTRF avg pIC50” value was found to be 8.60.

`Cn1c(=O)c2c(c3cc(Nc4nc(N5C[C@H](O)C[C@H](F)C5)ncc4Cl)ccc31)N[C@@H](C1CC1)C(F)(F)CO2` [Example 9a-1, (S)-10-((5-chloro-2-((3S,5R)-3-fluoro-5-hydroxypiperidin-1-yl)pyrimidin-4-yl)amino)-2-cyclopropyl-3,3-difluoro-7-methyl-1,2,3,4-tetrahydro-[1,4]oxazepino[2,3-c]quinolin-6(7H)-one]: the IC50 was 1.82 nM.

For the molecule `Cn1c(=O)c2c(c3cc(Nc4nc(N5C[C@@H](O)C[C@@H](F)C5)ncc4Cl)ccc31)N[C@@H](C1CC1)C(F)(F)CO2` [Example 9a-2, (S)-10-((5-chloro-2-((3R,5S)-3-fluoro-5-hydroxypiperidin-1-yl)pyrimidin-4-yl)amino)-2-cyclopropyl-3,3-difluoro-7-methyl-1,2,3,4-tetrahydro-[1,4]oxazepino[2,3-c]quinolin-6(7H)-one], the IC50 was 2.95 nM.

`CN(C)C[C@@H]1CCCN(c2ncc(Cl)c(Nc3ccc4c(c3)c3c(c(=O)n4C)OCC(F)(F)[C@H](C4CC4)N3)n2)C1` [Example 9b, (S)-10-((5-chloro-2-((S)-3-((dimethylamino)methyl)piperidin-1-yl)pyrimidin-4-yl)amino)-2-cyclopropyl-3,3-difluoro-7-methyl-1,2,3,4-tetrahydro-[1,4]oxazepino[2,3-c]quinolin-6(7H)-one]: the IC50 is 3.09 nM.

As for `CN(C)[C@H]1CCCN(c2ncc(Cl)c(Nc3ccc4c(c3)c3c(c(=O)n4C)OCC(F)(F)[C@H](C4CC4)N3)n2)C1` [Example 9h, (S)-10-((5-chloro-2-((S)-3-(dimethylamino)piperidin-1-yl)pyrimidin-4-yl)amino)-2-cyclopropyl-3,3-difluoro-7-methyl-1,2,3,4-tetrahydro-[1,4]oxazepino[2,3-c]quinolin-6(7H)-one], the IC50 is 3.39 nM.

`CN(C)[C@@H]1CCCN(c2ncc(Cl)c(Nc3ccc4c(c3)c3c(c(=O)n4C)OCC(F)(F)[C@H](C4CC4)N3)n2)C1` [Example 9i, (S)-10-((5-chloro-2-((R)-3-(dimethylamino)piperidin-1-yl)pyrimidin-4-yl)amino)-2-cyclopropyl-3,3-difluoro-7-methyl-1,2,3,4-tetrahydro-[1,4]oxazepino[2,3-c]quinolin-6(7H)-one]: the IC50 is 2.69 nM.

`CC(=O)N(C)[C@@H]1CN(c2ncc(Cl)c(Nc3ccc4c(c3)c3c(c(=O)n4C)OCC(F)(F)[C@H](C4CC4)N3)n2)CCC1(F)F` [Example 9m, N-((R)-1-(5-chloro-4-(((S)-2-cyclopropyl-3,3-difluoro-7-methyl-6-oxo-1,2,3,4,6,7-hexahydro-[1,4]oxazepino[2,3-c]quinolin-10-yl)amino)pyrimidin-2-yl)-4,4-difluoropiperidin-3-yl)-N-methylacetamide]: the IC50 was 2.51 nM.

For the molecule `CC(=O)N(C)[C@H]1CN(c2ncc(Cl)c(Nc3ccc4c(c3)c3c(c(=O)n4C)OCC(F)(F)[C@H](C4CC4)N3)n2)CCC1(F)F` [Example 9n, N-((S)-1-(5-chloro-4-(((S)-2-cyclopropyl-3,3-difluoro-7-methyl-6-oxo-1,2,3,4,6,7-hexahydro-[1,4]oxazepino[2,3-c]quinolin-10-yl)amino)pyrimidin-2-yl)-4,4-difluoropiperidin-3-yl)-N-methylacetamide], the IC50 was 4.9 nM.

On to `Cn1c(=O)c2c(c3cc(Nc4nc(N5CCC(F)(CO)CC5)ncc4Cl)ccc31)N[C@@H](C1CC1)C(F)(F)CO2` [Example 9o, (S)-10-((5-chloro-2-(4-fluoro-4-(hydroxymethyl)piperidin-1-yl)pyrimidin-4-yl)amino)-2-cyclopropyl-3,3-difluoro-7-methyl-1,2,3,4-tetrahydro-[1,4]oxazepino[2,3-c]quinolin-6(7H)-one], for which the IC50 is 9.33 nM.

As for `Cn1c(=O)c2c(c3cc(Nc4nc(N5CCC[C@@H](CO)C5)ncc4Cl)ccc31)N[C@@H](C1CC1)C(F)(F)CO2` [Example 9p, (S)-10-((5-chloro-2-((R)-3-(hydroxymethyl)piperidin-1-yl)pyrimidin-4-yl)amino)-2-cyclopropyl-3,3-difluoro-7-methyl-1,2,3,4-tetrahydro-[1,4]oxazepino[2,3-c]quinolin-6(7H)-one], the IC50 was 2.88 nM.

In the case of `Cn1c(=O)c2c(c3cc(Nc4nc(N5CCC[C@H](CO)C5)ncc4Cl)ccc31)N[C@@H](C1CC1)C(F)(F)CO2` [Example 9q, (S)-10-((5-chloro-2-((S)-3-(hydroxymethyl)piperidin-1-yl)pyrimidin-4-yl)amino)-2-cyclopropyl-3,3-difluoro-7-methyl-1,2,3,4-tetrahydro-[1,4]oxazepino[2,3-c]quinolin-6(7H)-one], the IC50 is 4.27 nM.

In the case of `Cn1c(=O)c2c(c3cc(Nc4nc(N5C[C@H](F)C[C@H](F)C5)ncc4Cl)ccc31)N[C@@H](C1CC1)C(F)(F)CO2` [Example 9s, (S)-10-((5-chloro-2-((3S,5R)-3,5-difluoropiperidin-1-yl)pyrimidin-4-yl)amino)-2-cyclopropyl-3,3-difluoro-7-methyl-1,2,3,4-tetrahydro-[1,4]oxazepino[2,3-c]quinolin-6(7H)-one], the IC50 was 19.5 nM.

Turning to `CN(CC(C)(C)O)c1ncc(Cl)c(Nc2ccc3c(c2)c2c(c(=O)n3C)OCC(F)(F)[C@H](C3CC3)N2)n1` [Example 9u, (S)-10-((5-chloro-2-((2-hydroxy-2-methylpropyl)(methyl)amino)pyrimidin-4-yl)amino)-2-cyclopropyl-3,3-difluoro-7-methyl-1,2,3,4-tetrahydro-[1,4]oxazepino[2,3-c]quinolin-6(7H)-one], the IC50 is 4.17 nM.

Turning to `CN(CCC(C)(C)O)c1ncc(Cl)c(Nc2ccc3c(c2)c2c(c(=O)n3C)OCC(F)(F)[C@H](C3CC3)N2)n1` [Example 9v, (S)-10-((5-chloro-2-((3-hydroxy-3-methylbutyl)(methyl)amino)pyrimidin-4-yl)amino)-2-cyclopropyl-3,3-difluoro-7-methyl-1,2,3,4-tetrahydro-[1,4]oxazepino[2,3-c]quinolin-6(7H)-one], the IC50 is 4.68 nM.

`Cn1c(=O)c2c(c3cc(Nc4nc(N5CC6(CN(CC7CC7)C6)C5)ncc4Cl)ccc31)N[C@@H](C1CC1)C(F)(F)CO2` [Example 9w, (S)-10-((5-chloro-2-(6-(cyclopropylmethyl)-2,6-diazaspiro[3.3]heptan-2-yl)pyrimidin-4-yl)amino)-2-cyclopropyl-3,3-difluoro-7-methyl-1,2,3,4-tetrahydro-[1,4]oxazepino[2,3-c]quinolin-6(7H)-one]: the IC50 is 2.75 nM.

Consider `Cn1c(=O)c2c(c3cc(Nc4nc(N5CC6(CN(CC7CC7(F)F)C6)C5)ncc4Cl)ccc31)N[C@@H](C1CC1)C(F)(F)CO2` (stereo partly drawn) [Example 9x, (2S)-10-((5-chloro-2-(6-((2,2-difluorocyclopropyl)methyl)-2,6-diazaspiro[3.3]heptan-2-yl)pyrimidin-4-yl)amino)-2-cyclopropyl-3,3-difluoro-7-methyl-1,2,3,4-tetrahydro-[1,4]oxazepino[2,3-c]quinolin-6(7H)-one], for which the IC50 was 3.47 nM.

For `Cn1c(=O)c2c(c3cc(Nc4nc(N5CC6CCC(C5)N6CC5CC5)ncc4Cl)ccc31)N[C@@H](C1CC1)C(F)(F)CO2` [Example 9y, (2S)-10-((5-chloro-2-(8-(cyclopropylmethyl)-3,8-diazabicyclo[3.2.1]octan-3-yl)pyrimidin-4-yl)amino)-2-cyclopropyl-3,3-difluoro-7-methyl-1,2,3,4-tetrahydro-[1,4]oxazepino[2,3-c]quinolin-6(7H)-one], the IC50 is 2.75 nM.
